“Also recorded” adds a separate entry of the source.
What was measured:
SMC1β = SMC1β proteolysis/degradation assay in testis nuclear extracts (immunoblot); assay type: biochemical, mouse; conditions: for effect of added SMC1β protein fragment on degradation of SMC1β: increasing amounts of fragment added to testis nuclear extract, anti-SMC1β immunoblot
Source text: It is very likely, that phosphorylation and/or protein degradation play an important role in regulating the removal of SMC1β and its complex from meiotic chromosomes. Understanding this mechanism would fill a significant gap in our knowledge of the meiotic process and of regulation of SMC1β function. It is unlikely that association and dissociation of cohesins are regulated exclusively through Rec8, because Rec8 behaves differently from SMC1β and SMC3 (Eijpe et al., J. Cell Biol. 160:657-670,2003; and see below). As a first approach to address this question, a series of proteolysis assays were undertaken. In these assays, nuclear extracts from mouse testis were incubated under various conditions and investigated the intactness of SMC1β by immunoblotting.
To begin testing the effect of phosphorylation, nuclear extracts were prepared in the presence or absence of general phosphatase inhibitors (1 mM o-vanadate, 10 mM β-glycerophosphate). If a phosphorylated SMC1β is more prone to degradation, inhibited dephosphorylation should stimulate degradation. […] The effect of phosphatase inhibition can either be direct—on SMC1β phosphorylation—or indirect, i.e. on maintaining an activated state of the protease or of a regulator of the protease. The mechanism of phosphatase inhibition and the identification of enzymes that are involved are currently being examined.
Speculating that the 120-kDa product seen in degradation assays is a true intermediate of SMC1β degradation, two fragments of SMC1β that span either one of the two putative regions of cleavage, positioned at about 30 kDa distance from each of the termini, were subcloned and expressed in E. coli. Thus, an N-terminal or a C-terminal polypeptide of 33 or 35 kDa, respectively, was expressed and purified. While the N-terminal fragment was purified to near homogeneity (100 mM imidazole fraction), there were one major and a few minor contaminants in the C-terminal fragment preparation. The putative region of cleavage was identified at the center of these polypeptides (N-terminal fragment: amino acids 174 to 420; C-terminal fragment: amino acids 820 to 1073). These proteins were used in cleavage inhibition assays. […] Thus, there is early evidence for a cleavage site within the N-terminal region between amino acids 174 and 420, and the precise cleavage site is being determined.
In attempts to identify the protease cleavage site within SMC1β, N-terminal and C-terminal protein fragments of SMC1β were purified in increasing concentrations of imidazole in elution buffer and run on silver-stained SDS polyacrylamide gels. To assay degradation, increasing amounts of N- or C-terminal protein fragments were then added to a reaction containing extract incubated with and without competitor. Reactions were then separated eletrophoretically on SDS polyacrylamide gels, immunoblotted, and probed with anti-SMC1β antibody. […] Cleavage of the N-terminal fragment itself is currently being investigated.

Rec8 or STAG3 = experiment: Degradation of other cohesin subunits in testis nuclear extracts; assay type: biochemical, mouse; conditions: ATP added to testis nuclear extract
human PEP = target: T1, human PEP (Homo sapiens, UniProt P48147); conditions: inhibitor from Calbiochem Inc.; cited from earlier work
T1 sequence (P48147 1-710): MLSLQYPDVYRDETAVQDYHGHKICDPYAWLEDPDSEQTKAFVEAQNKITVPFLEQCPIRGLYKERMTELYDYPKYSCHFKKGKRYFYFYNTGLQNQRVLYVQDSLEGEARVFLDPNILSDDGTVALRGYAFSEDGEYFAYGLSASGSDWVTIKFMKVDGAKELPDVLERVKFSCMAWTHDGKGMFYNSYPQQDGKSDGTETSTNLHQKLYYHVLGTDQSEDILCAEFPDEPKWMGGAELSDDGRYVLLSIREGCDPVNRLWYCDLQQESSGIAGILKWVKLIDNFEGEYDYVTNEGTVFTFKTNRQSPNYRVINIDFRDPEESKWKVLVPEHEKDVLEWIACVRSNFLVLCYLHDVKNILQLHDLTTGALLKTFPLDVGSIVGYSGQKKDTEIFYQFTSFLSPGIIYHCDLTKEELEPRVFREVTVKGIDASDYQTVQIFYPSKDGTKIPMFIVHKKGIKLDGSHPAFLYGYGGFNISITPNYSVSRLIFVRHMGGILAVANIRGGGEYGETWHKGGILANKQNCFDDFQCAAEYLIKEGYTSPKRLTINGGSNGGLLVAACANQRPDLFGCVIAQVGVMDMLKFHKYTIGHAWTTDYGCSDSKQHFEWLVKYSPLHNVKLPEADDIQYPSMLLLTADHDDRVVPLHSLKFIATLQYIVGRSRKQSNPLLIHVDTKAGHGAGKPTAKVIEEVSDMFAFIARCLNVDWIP

spermatocytes = experiment: Okadaic acid-induced premature transition of cultured spermatocytes into metaphase I; assay type: cell-based; conditions: wildtype mouse spermatocytes; 5 μM okadaic acid for 5 h
Source text: As a result, 20 bivalents, each with two pairs of unseparated, closely apposed sister kinetochores and at least one chiasma became visible. […] Co-staining for γ-H2AX, which decreases from zygotene to pachytene, allowed for determination of the stage at which the cells were exposed to OA. Cells with 80 centromere signals were of pachytene origin (no γ-H2AX), and cells with 40 centromere signals were of zygotene origin (patchy γ-H2AX).
Most antibodies used have been described (Eijpe et al., supra, 2000; Revenkova et al., supra, 2001; and 14. Eijpe et al., J. Cell Biol. 3,.657-670, 2003). Mouse anti-MLH1 was from BDPharMingen, rabbit-antiMLH1 from Calbiochem, and rabbit anti-SMC1α from Bethyl Labs Inc. Mouse anti-γH2AX was donated by A. Pastink, rabbit anti-SMC3 by J. -M. Peters, rabbit anti-RAP1 by T. de Lange, mouse anti-ATR by P. de Boer, mouse anti-MLH3 by P. Cohen, and goat anti-rat SCP3 by T. Ashley. Paraffin and frozen sections of mouse testis, and dry-down preparations of testis cell suspensions were prepared, incubated for immunocytochemistry and analyzed as described (Eijpe et al., supra, 2000;, Revenkova et al., supra, 2001; Eijpe et al., J. Cell Biol. 3, 657-670, 2003; Peters et al., Chromosome Res. 5:66-68, 1997). Mice were labeled in vivo with BrdU, and detected -the incorporated BrdU in sections and dry-down preparations as described before (Eijpe et al, supra, 2003). […]

[1] = system: type A spermatogonial cells; conditions: cited from earlier work

Nc1ncnc2c1ncn2[C@@H]1O[C@H](COP(=O)(O)OP(=O)(O)OP(=O)(O)O)[C@@H](O)[C@H]1O [ATP]
effect of ATP on SMC1β degradation (SMC1β; ATP added to testis nuclear extract): increased the efficiency of the reaction; also recorded: stimulates SMC1β degradation
effect of ATP on degradation of Rec8 or STAG3 (Rec8 or STAG3): not enhanced by addition of ATP, but rather inhibited

CC(C)(C)OC(=O)NC(CCC(=O)NOC(=O)c1ccccc1)C(=O)N1CCCC1 (stereo not shown) [Boc-Glu(NHO-Bz)-Pyr]
Ki (human PEP): 30 nM

C=C1[C@@H](O)[C@@H]2O[C@]3(CC[C@H](/C=C/[C@@H](C)[C@@H]4CC(C)=C[C@@]5(O[C@H](C[C@@](C)(O)C(=O)O)CC[C@H]5O)O4)O3)CC[C@H]2O[C@@H]1[C@@H](O)C[C@H](C)[C@H]1O[C@@]2(CCCCO2)CC[C@H]1C [OA, okadaic acid]
effect on chromosome condensation and cohesion (spermatocytes): caused premature chromosome condensation from mid-pachytene on, without affecting sister chromatid arm and centromere cohesion

stem cell factor: stem cell factor (SCF; kit ligand) added to induce meiosis in spermatogonial cultures
cells that are 4N ([1]; after 1 week of induction): 40%
total cell population that is haploid ([1]; after 3 weeks of induction): 58%

B1: C-terminal protein: SMC1β C-terminal fragment, amino acids 820 to 1073, 35 kDa polypeptide expressed in E. coli (protein, UniProt Q8NDV3 820-1073, looked up, fragment)
chain: QLEYSRSHLKKKLNKINTLKETIQKGSEDIDHLKKAEENCLQTVNELMAKQQQLKDIRVTQNSSAEKVQTQIEEERKKFLAVDREVGKLQKEVVSIQTSLEQKRLEKHNLLLDCKVQDIEIILLSGSLDDIIEVEMGTEAESTQATIDIYEKEEAFEIDYSSLKEDLKALQSDQEIEAHLRLLLQQVASQEDILLKTAAPNLRALENLKTVRDKFQESTDAFEASRKEARLCRQEFEQVKKRRYDLFTQCFEHV
effect of added SMC1β protein fragment on degradation of SMC1β (SMC1β): degradation was not affected

B2: N-terminal protein: SMC1β N-terminal fragment, amino acids 174 to 420, 33 kDa polypeptide expressed in E. coli (protein, UniProt Q8NDV3 174-420, looked up, fragment)
chain: KLQKAEEDAQFNFNKKKNIAAERRQAKLEKEEAERYQSLLEELKMNKIQLQLFQLYHNEKKIHLLNTKLEHVNRDLSVKRESLSHHENIVKARKKEHGMLTRQLQQTEKELKSVETLLNQKRPQYIKAKENTSHHLKKLDVAKKSIKDSEKQCSKQEDDIKALETELADLDAAWRSFEKQIEEEILHKKRDIELEASQLDRYKELKEQVRKKVATMTQQLEKLQWEQKTDEERLAFEKRRHGEVQGN
effect of added SMC1β protein fragment on degradation of SMC1β (SMC1β): inhibited the degradation of SMC1β
effect of added SMC1β protein fragment on degradation of SMC1β (SMC1β; listed as N-terminal 33-kDa fragment): identified as an inhibitor to protease cleavage
effect of added SMC1β protein fragment on degradation of SMC1β (SMC1β; listed as N-terminal peptide of SMC1β): inhibited specifically

— patent publication US20070298026A1, “Methods for Identifying Treatment and Inducing Infertility Using Smc1-Beta” (MOUNT SINAI SCHOOL OF MEDICINE Office of Industrial Liaison, priority 2003, published 2007)
